Laboratory results taken from article PMC3684443 (ACS chemical biology, 2012).

Experiments:
[1] = system: HNSCC cell line 1483 xenograft tumors; assay: Antitumor effect in HNSCC xenograft model, tumor volume; format: in vivo, Athymic nude mice; conditions: 2 weeks treatment, comparison between the three treated groups
[2] = system: HNSCC; conditions: cited from earlier work

C#Cc1cccc(Nc2ncnc3cc(OCCOC)c(OCCOC)cc23)c1 [erlotinib]
Response among erlotinib, cetuximab and EGFRAS-GPNA groups [1]: no significant difference | Clinical response rate ([2]; HNSCC and NSCLC patients): 4% | Disease stabilization ([2]; phase II trial, for 16 weeks): 38% | Response rate ([2]; phase II trial): 4%
